Test results reported in publication PMC9856044 (Biomolecules, 2023).
Where a name gives a salt, the structure may show the parent alone. Each block holds one compound with its values, some of them ahead of it.

What was measured:
Tel22 G-quadruplex [1] = assay: Thermal melting of Tel22 in potassium phosphate buffer; type: binding, human; conditions: Tel22, r = 1.0, potassium phosphate buffer, pH = 7.0, I = 0.1 mol dm^−3; error ±0.5 °C
Protocol: (§1) Thermal melting curves for DNA, RNA and their complexes with studied compounds were determined as previously described by following the absorption change at 260 nm as a function of temperature. The absorbance of the ligands was subtracted from every curve and the absorbance scale was normalized. Tm values are the midpoints of the transition curves determined from the maximum of the first derivative and checked graphically by the tangent method. The ∆Tm values were calculated by subtracting Tm of the free nucleic acid from Tm of the complex. Every ∆Tm value here reported was the average of two measurements. The error in ∆Tm is ±0.5 °C. 5′-AGGG(TTAGGG)3–3′(Tel22) was obtained from IDT (Integrated DNA Technologies, Coralville, IA, USA). Tel22 was dissolved in 0.1 M either in sodium cacodylate or potassium phosphate buffer. The starting Tel22 oligonucleotide solution was first heated up to 95 °C for 10 min, then slowly cooled to 10 °C at the cooling rate of 1 °C/min to allow DNA oligonucleotide to adopt a G-quadruplex structure. The G-quadruplex structure was confirmed by thermal melting and CD spectra. The concentration of G quadruplex was expressed in terms of oligonucleotide structure. In fluorimetric titrations, aliquots of Tel 22 solution were added to the solution of ligands (c ~ 2 × 10^−7 M, in SI).

SK-OV-3 cells = assay: MTT cytotoxicity assay, SK-OV-3; type: cell-based; conditions: Homo sapiens, SK-OV-3, 72 h incubation, ± SD
Protocol: (§2) Human cervical carcinoma HeLa (GIBCO BRL, Invitrogen, Waltham, MA, USA), human melanoma MDA-MB-435S and human ovarian adenocarcinoma SK-OV-3 (ATCC-LGC Standards GmbH, Wesel, Germany) cell lines were purchased from indicated cell culture banks. Normal human skin fibroblasts were isolated from the upper arm of a donor at the Neurochemical Laboratory, Department of Chemistry and Biochemistry, School of Medicine, University of Zagreb. HeLa, MDA-MB-435S and fibroblasts were grown in Dulbecco’s Modified Eagle’s Medium (DMEM; Sigma-Aldrich, St. Louis, MI, USA) while the SK-OV-3 cell line was grown in McCoy’s 5A medium (Capricorn Scientific, Ebsdorfergrund, Germany). All media were supplemented with 10% fetal bovine serum (FBS; Sigma-Aldrich) and 50 I.U./mL penicillin and 50 μg/mL streptomycin. Cells were cultured in a humidified atmosphere of 5% CO2 at 37 °C and were sub-cultured every 3–4 days. HeLa, MDA-MB-435S, SK-OV-3 cells and fibroblasts were seeded in 96 well plates. Twenty-four hours later the cells were treated, in quadruplicate, with different concentrations of compounds (dissolved in DMSO, kept at 4 °C and protected from light). Following 72 h of incubation at 37 °C, the medium was aspired and modified 3-(4,5-dimethylthiazol-2-yl)-2,5-diphenyltetrazolium bromide (MTT) assay was used to determine the cytotoxic effect of the tested compounds. Three hours later, formazan crystals were dissolved in DMSO (0.17 mL/well), the plates were mechanically agitated for 20 min and the optical density at 600 nm was determined on a microtiter plate reader (Awareness Technology Inc., Palm City, FL, USA). The experiments were repeated three times.

[2] = Solubility and aggregation (UV/Vis characterization); type: physicochemical; conditions: for Aggregation in aqueous buffer: sodium cacodylate buffer, I = 0.05 mol dm^−3, pH = 7.0, UV/Vis
Protocol: The UV/vis spectra were recorded on a Varian Cary 100 Bio spectrophotometer (Agilent, Santa Clara, CA, USA), CD spectra on JASCO J815 spectrophotometer (ABL&E Handels GmbH, Wien, Austria) and fluorescence spectra on a Varian Cary Eclipse spectrophotometer (Agilent, Santa Clara, CA, USA) at 25 °C using appropriate 1 cm path quartz cuvettes.
Studied compounds, 1–6 were soluble (c = 8 × 10^−4 mol dm^−3) in DMSO. […] Therefore, the stock solution of 2 was prepared fresh before use. The experiments were done in aqueous buffer (sodium cacodylate buffer, I = 0.05 mol dm^−3; pH = 7.0).
However, the shape of UV/Vis spectra of cyanine 2 changed with increasing concentration (calibration experiment in Figure S2 in SI). In addition to the dominant maximum at 432 nm (which most likely corresponds to the monomer form of the dye), the absorption band at 413 nm becomes more intense (Figure S2 in SI). Presumably, it corresponds to the aggregated form (H-aggregate). Based on the existence of an absorption band at 432 nm, only the monomer dye form is visible at high temperature (95 °C) (Figure S8b in SI). However, after cooling the solution to 25 °C, an additional band appears at 413 nm, which corresponds to the aggregated dye form.

[3] = biological target: Tel22 (5′-AGGG(TTAGGG)3–3′) G-quadruplex; assay: Fluorimetric titration with Tel22 in potassium phosphate buffer (K+ solution); type: binding, human; conditions: Tel22, potassium phosphate buffer, pH = 7.0, I = 0.1 mol dm^−3; SPECFIT fit
Protocol: (§3) Materials. Polynucleotides were purchased as noted: poly A–poly U, calf thymus ctDNA, poly(dAdT)2 and poly(dGdC)2 (Sigma-Aldrich, St. Louis, MI, USA). Polynucleotides were dissolved in Na-cacodylate buffer, I = 0.05 mol dm^−3, pH = 7.0. The calf thymus ctDNA was additionally sonicated and filtered through a […]. Polynucleotide concentration was determined spectroscopically as the concentration of phosphates. Spectrophotometric titrations were performed at pH = 7.0 (I = 0.05 mol dm^−3, sodium cacodylate buffer) by adding aliquots of polynucleotide solution into the solution of the studied compound for fluorimetric experiments and CD experiments were done by adding aliquots of the compound stock solution into the solution of a polynucleotide. In fluorimetric experiments, an excitation wavelength of λexc = 425, 431, 423, 427, 406 and 407 nm, respectively, was used to avoid the inner filter effect caused due to increasing absorbance of the polynucleotide. Emission was collected in the range λem = 400–700 nm. Values for Ka obtained by processing titration data using the Scatchard equation [27], all have satisfactory correlation coefficients (≥0.98).
as §1
(§4) Binding constants (log Ka) and stoichiometry of complexes were calculated from the fluorimetric data using non-linear least-square program SPECFIT [46], in the concentration range that corresponded to 20–80% complex formed.

MDA-MB-435S cells = assay: MTT cytotoxicity assay, MDA-MB-435S; type: cell-based; conditions: Homo sapiens, 72 h incubation, ± SD
Protocol: as §2

Fibroblasts = assay: MTT cytotoxicity assay, normal human skin fibroblasts; type: cell-based; conditions: Fibroblast, 72 h incubation, ± SD
Protocol: as §2

Tel22 G-quadruplex [4] = assay: Thermal melting of Tel22 in sodium cacodylate buffer; type: binding, human; conditions: Tel22, r = 1.0, sodium cacodylate buffer, pH = 7.0, I = 0.1 mol dm^−3; error ± 0.5 °C
Protocol: as §1

HeLa cells = assay: MTT cytotoxicity assay, HeLa; type: cell-based; conditions: Homo sapiens, 72 h incubation, ± SD
Protocol: as §2

[5] = biological target: Tel22 (5′-AGGG(TTAGGG)3–3′) G-quadruplex; assay: Fluorimetric titration with Tel22 in sodium cacodylate buffer (Na+ solution); type: binding, human
Protocol: as §3, §1, §4

[6] = tested on: poly A–poly U (AU-RNA) (RNA, polymer) A/U; assay: CD titration (ICD); conditions: Na+ (sodium cacodylate, I = 0.05 M), pH 7.0, 25 °C
[7] = tested on: poly(dAdT)2 (AT-DNA) (DNA, polymer) AT; assay: CD titration (ICD); conditions: Na+ (sodium cacodylate, I = 0.05 M), pH 7.0, 25 °C
[8] = tested on: Tel22 (DNA, G4) AGGGTTAGGGTTAGGGTTAGGG; assay: fluorescence titration (SPECFIT); conditions: pH 7.0, 25 °C; for logKa: K+ (potassium phosphate, I = 0.1 M); for logKa1: Na+ (sodium cacodylate, I = 0.1 M)
[9] = tested on: Tel22 (DNA, G4) AGGGTTAGGGTTAGGGTTAGGG; assay: UV thermal melting, 260 nm; conditions: pH 7.0, Tel22 2 µM, r = 1.0 (compound 2 µM)
[10] = tested on: poly(dGdC)2 (GC-DNA) (DNA, polymer) GC; assay: CD titration (ICD); conditions: Na+ (sodium cacodylate, I = 0.05 M), pH 7.0, 25 °C
[11] = tested on: poly(dAdT)2 (AT-DNA) (DNA, polymer) AT; assay: UV thermal melting, 260 nm; conditions: Na+ (sodium cacodylate, I = 0.05 M); pH 7.0; r [compound]/[nucleotide phosphate] = 0.1; per base
[12] = K+ (potassium phosphate, I = 0.1 M)
[13] = Na+ (sodium cacodylate, I = 0.1 M)

Structure (SMILES): CN1/C(=C/c2[se]c3ccccc3[n+]2C)Sc2cc(Cl)ccc21 (as salt: sulphate) [Compound 4, 2-((6-chloro-3-methylbenzo[d]thiazol-2(3H)-ylidene)methyl)-3-methylbenzo[d][1,3]selenazol-3-ium methosulphate]
melting point: > 300 °C

Structure (SMILES): CN1/C(=C/c2[se]c3ccccc3[n+]2C)Sc2cc(Cl)ccc21 [Compound 4, 2-((6-chloro-3-methylbenzo[d]thiazol-2(3H)-ylidene)methyl)-3-methylbenzo[d][1,3]selenazol-3-ium methosulphate]
∆Tm (Tel22 G-quadruplex [1]): 3.2 °C
IC50 (SK-OV-3 cells): 1320 ± 125 nM
Aggregation in aqueous buffer [2]: do not form aggregates
logKa (L + G ⇆ LG, 1:1 complex) [3]: 7.78 ± 0.18
IC50 (MDA-MB-435S cells): 614 ± 77.6 nM
IC50 (Fibroblasts): > 2500 nM
∆Tm (Tel22 G-quadruplex [4]): 2.1 °C
IC50 (HeLa cells): 793 ± 157 nM
logKa1 (L + G ⇆ LG) ([5]; Tel22, sodium cacodylate buffer, pH = 7.0, I = 0.1 mol dm^−3, SPECFIT fit of fluorescence titration): 6.19 ± 0.01
Selectivity for G-quadruplex over duplex DNA ([5]; binding affinities Tel22 vs duplex DNA, in both the Na+ and K+ solutions): 100 fold

Structure (SMILES): C[n+]1c(/C=C2\Sc3ccccc3N2CCCS)[se]c2ccccc21 (as salt: sulphate) [Compound 5, 2-((3-(3-mercaptopropyl)benzo[d]thiazol-2(3H)-ylidene)methyl)-3-methylbenzo[d][1,3]selenazol-3-ium methosulphate]
melting point: 233 to 236 °C

binding ([6]; bisignate ICD +405/−385 nm): yes
binding ([7]; positive ICD at 440 nm): yes
logKa [8]: 7.78 ± 0.18
logKa1 [8]: 6.19 ± 0.01
∆Tm [9, 12]: 3.2 °C
∆Tm [9, 13]: 2.1 °C
binding ([10]; bisignate ICD +440/−410 nm): yes
Structure (SMILES): CN1C(=Cc2[se]c3ccccc3[n+]2C)Sc2cc(Cl)ccc21

binding ([6]; bisignate ICD): yes
binding ([7]; bisignate ICD +440/−400 nm): yes
∆Tm [9, 12]: 6.9 °C
∆Tm [9, 13]: 2.0 °C
binding ([10]; bisignate ICD +440/−400 nm): yes
Structure (SMILES): C[n+]1c(C=C2Sc3ccccc3N2CCS)[se]c2ccccc21

Structure (SMILES): CN1/C(=C/c2[se]c3ccccc3[n+]2C)Sc2ccccc21 (as salt: sulphate) [Compound 3, 3-methyl-2-((3-methylbenzo[d]thiazol-2(3H)-ylidene)methyl)benzo[d][1,3]selenazol-3-ium methosulphate]
melting point: > 300 °C

∆Tm [11]: 4 °C
∆Tm [9, 12]: 5.1 °C
∆Tm [9, 13]: 2.1 °C
Structure (SMILES): C[n+]1c(C=C2Sc3ccccc3N2CCCS)[se]c2ccccc21

binding ([6]; bisignate ICD +405/−385 nm): yes
binding ([7]; positive ICD at 440 nm): yes
logKa [8]: 6.88 ± 0.05
logKa1 ([8]; site 1 of 2): 7.26 ± 0.41
∆Tm [9, 12]: 0.5 °C
∆Tm [9, 13]: 0.5 °C
Structure (SMILES): CN1C(=Cc2[se]c3ccccc3[n+]2C)Sc2ccccc21

Structure (SMILES): C[n+]1c(/C=C2\Sc3ccccc3N2CCS)[se]c2ccccc21 (as salt: sulphate) [Compound 6, 2-((3-(2-mercaptoethyl)benzo[d]thiazol-2(3H)-ylidene)methyl)-3-methylbenzo[d][1,3]selenazol-3-ium methosulphate]
melting point: 245 to 247 °C

Structure (SMILES): COc1ccc2c(c1)SC(=Cc1[se]c3ccccc3[n+]1C)N2CCCS(=O)(=O)[O-] [Compound 2, 3-(6-methoxy-2-((3-methylbenzo[d][1,3]selenazol-3-ium-2-yl)methylene)benzo[d]thiazol-3(2H)-yl)propane-1-sulfonate]
melting point: > 300 °C
Aggregation in DMSO stock solution ([2]; DMSO, after several weeks): prone to aggregation
Aggregation in aqueous buffer [2]: mixture of monomer and aggregated form
∆Tm (Tel22 G-quadruplex [4]): 0 °C
∆Tm [9, 13]: 0 °C
